This assay has as its target PD-1-Ig binding to PD-L1-TVMV-His (PD-L1-His) (Homo sapiens (Human), UniProt Q9NZQ7). Briefly: PD-1/PD-L1 Homogenous Time-Resolved Fluorescence (HTRF) binding assay (PD-1-Ig/PD-L1-His). The note with it: PD-1-Ig (20 nM)/PD-L1-His (10 nM). The text has this: Methods for Testing the Ability of Macrocyclic Compounds to Compete for the Binding of PD-1 to PD-L1 Using Homogenous Time-Resolved Fluorescence (HTRF) Binding Assays
The ability of the macrocyclic compounds of the present disclosure to bind to PD-L1 was investigated using a PD-1/PD-L1 Homogenous Time-Resolved Fluorescence (HTRF) binding assay.
Homogenous Time-Resolved Fluorescence (HTRF) Assays of Binding of Soluble PD-1 to Soluble PD-L1. Soluble PD-1 and soluble PD-L1 refers to proteins with carboxyl-end truncations that remove the transmembrane-spanning regions and are fused to heterologous sequences, specifically the Fc portion of the human immunoglobulin G sequence (Ig) or the hexahistidine epitope tag (His). All binding studies were performed in an HTRF assay buffer consisting of dPBS supplemented with 0.1% (w/v) bovine serum albumin and 0.05% (v/v) Tween-20. For the PD-1-Ig/PD-L1-His binding assay, inhibitors were pre-incubated with PD-L1-His (10 nM final) for 15 m in 4 μl of assay buffer, followed by addition of PD-1-Ig (20 nM final) in 1 μl of assay buffer and further incubation for 15 m. PD-L1 fusion proteins from either human, cynomologous macaques, mouse, or other species were used. HTRF detection was achieved using europium crypate-labeled anti-Ig monoclonal antibody (1 nM final) and allophycocyanin (APC) labeled anti-His monoclonal antibody (20 nM final). Antibodies were diluted in HTRF detection buffer and 5 μl was dispensed on top of binding reaction. […] Additional binding assays were established between PD-1-Ig/PD-L2-His (20 and 5 nM, respectively), CD80-His/PD-L1-Ig (100 and 10 nM, respectively) and CD80-His/CTLA4-Ig (10 and 5 nM, respectively).
Recombinant Proteins. […] Human PD-L2-His (Sino Biologicals), CD80-His (Sino Biologicals), CTLA4-Ig (RnD Systems) were all obtained through commercial sources.
In general terms: In TR-FRET formats the signal depends on donor and acceptor labels being close together.

Each structure is given as a SMILES string. Where a SMILES comes first, the peptide text is derived from it. Bridges are numbered along the chain shown (N, C = ends). [ ]: non-standard residue; d: D form. Bta = N[C@@H](Cc1csc2ccccc12)C(=O)O; Hyp = O=C(O)[C@@H]1C[C@@H](O)CN1; NMeNle = CCCC[C@H](NC)C(=O)O; NMeA = CN[C@@H](C)C(=O)O

Chain of PD-1-Ig binding to PD-L1-TVMV-His (PD-L1-His) (Q9NZQ7 other isoform, or with tags, fused parts or gaps): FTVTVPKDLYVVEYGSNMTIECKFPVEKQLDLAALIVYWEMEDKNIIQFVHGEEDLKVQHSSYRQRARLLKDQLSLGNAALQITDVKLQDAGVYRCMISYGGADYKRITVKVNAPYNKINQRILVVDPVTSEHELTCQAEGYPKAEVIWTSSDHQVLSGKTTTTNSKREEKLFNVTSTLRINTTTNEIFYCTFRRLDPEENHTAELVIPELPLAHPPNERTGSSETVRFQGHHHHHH

On to `CCCC[C@H]1C(=O)N(C)[C@@H](CCCC)C(=O)N[C@H]2CCC(=O)NCCCC[C@H](NC(=O)[C@H](Cc3c[nH]c4ccccc34)NC(=O)[C@@H]3CCCN3C(=O)[C@H](CC(C)C)NC(=O)[C@H](Cc3c[nH]cn3)NC(=O)[C@@H]3CCCN3C(=O)[C@H](CC(N)=O)NC(=O)[C@H](C)N(C)C(=O)[C@H](Cc3ccc(O)cc3)NC(=O)CSC[C@@H](C(=O)NCC(N)=O)NC2=O)C(=O)N[C@@H](Cc2csc3ccccc23)C(=O)N1C` [Example 5004] ({CH2CO}-Y[NMeA]NPHLPWK[Bta][NMeNle][NMeNle]ECG-NH2; lactam 9-13; thioether N-14), for which the IC50 (in general, the concentration that inhibits the measured activity by half) (range classes) is 3 to 9.9 nM. `CCCC[C@H]1C(=O)N(C)[C@@H](CCCC)C(=O)N[C@H]2CCC(=O)NCCCC[C@H](NC(=O)[C@H](Cc3c[nH]c4ccccc34)NC(=O)[C@@H]3C[C@@H](O)CN3C(=O)[C@@H]3CCCCNC(=O)C[C@H](NC(=O)[C@H](C)N(C)C(=O)[C@H](Cc4ccc(O)cc4)NC(=O)CSC[C@@H](C(=O)NCC(N)=O)NC2=O)C(=O)N2CCC[C@H]2C(=O)N[C@@H](Cc2c[nH]cn2)C(=O)N3)C(=O)N[C@@H](Cc2c[nH]c3ccccc23)C(=O)N1C` [Example 5005] ({CH2CO}-Y[NMeA]DPHK[Hyp]WKW[NMeNle][NMeNle]ECG-NH2; lactam 3-6, 9-13; thioether N-14) showed an IC50 (range classes) of 10 to 99 nM. `CCCC[C@H]1C(=O)N(C)[C@@H](CCCC)C(=O)N[C@@H](CCC(N)=O)C(=O)N[C@H](C(=O)NCC(N)=O)CSCC(=O)N[C@@H](Cc2ccc(O)cc2)C(=O)N[C@H](C)C(=O)N[C@H]2CC(=O)NCCCC[C@H](NC(=O)[C@H](Cc3c[nH]cn3)NC(=O)[C@@H]3CCCN3C2=O)C(=O)N2C[C@H](O)C[C@H]2C(=O)N[C@@H](Cc2c[nH]c3ccccc23)C(=O)N[C@@H](CO)C(=O)N[C@@H](Cc2c[nH]c3ccccc23)C(=O)N1C` [Example 5006] ({CH2CO}-Y[dA]DPHK[Hyp]WSW[NMeNle][NMeNle]QCG-NH2; lactam 3-6; thioether N-14) gave a 50% inhibitory concentration (IC50) (range classes) of 10 to 99 nM. For the molecule `CCCC[C@H]1C(=O)N(C)[C@@H](CCCC)C(=O)N[C@H]2CCC(=O)NCCCC[C@H](NC(=O)[C@H](Cc3c[nH]c4ccccc34)NC(=O)[C@@H]3C[C@@H](O)CN3C(=O)[C@H](CCC(N)=O)NC(=O)[C@H](Cc3c[nH]cn3)NC(=O)[C@@H]3CCCN3C(=O)[C@H](CC(N)=O)NC(=O)[C@@H](C)NC(=O)[C@H](Cc3ccc(O)cc3)NC(=O)CSC[C@@H](C(=O)NCC(N)=O)NC2=O)C(=O)N[C@@H](Cc2c[nH]c3ccccc23)C(=O)N1C` [Example 5007] ({CH2CO}-Y[dA]NPHQ[Hyp]WKW[NMeNle][NMeNle]ECG-NH2; lactam 9-13; thioether N-14), under “numeric values”, the IC50 was 14 nM. `CCCC[C@H]1C(=O)N(C)[C@@H](CCCC)C(=O)N[C@H]2CCC(=O)NCCCC[C@H](NC(=O)[C@H](Cc3c[nH]c4ccccc34)NC(=O)[C@@H]3C[C@@H](O)CN3C(=O)[C@H](CC(C)C)NC(=O)[C@H](Cc3c[nH]cn3)NC(=O)[C@@H]3CCCN3C(=O)[C@H](CC(N)=O)NC(=O)[C@@H](C)NC(=O)[C@H](Cc3ccc(O)cc3)NC(=O)CSC[C@@H](C(=O)NCC(N)=O)NC2=O)C(=O)N[C@@H](Cc2c[nH]c3ccccc23)C(=O)N1C` [Example 5008] ({CH2CO}-Y[dA]NPHL[Hyp]WKW[NMeNle][NMeNle]ECG-NH2; lactam 9-13; thioether N-14) registered an IC50 (range classes) of 3 to 9.9 nM. `CCCC[C@H]1C(=O)N(C)[C@@H](CCCC)C(=O)N[C@H]2CCCC[C@H](NC(=O)[C@H](Cc3c[nH]c4ccccc34)NC(=O)[C@@H]3CCCN3C(=O)[C@H](CC(C)C)NC(=O)[C@H](Cc3cnc[nH]3)NC(=O)[C@@H]3CCCN3C(=O)[C@H](CC(N)=O)NC(=O)[C@H](C)N(C)C(=O)[C@H](Cc3ccc(O)cc3)NC(=O)CSC[C@@H](C(=O)NCC(N)=O)NC2=O)C(=O)N[C@@H](Cc2c[nH]c3ccccc23)C(=O)N1C` [Example 7156] displayed an IC50 (range classes) of 10 to 99 nM. In turn, `CCCC[C@H]1C(=O)N(C)[C@@H](CCCC)C(=O)N[C@@H](CC(C)C)C(=O)N[C@H](C(=O)NCC(N)=O)CSCC(=O)N[C@@H](Cc2ccc(O)cc2)C(=O)N(C)[C@@H](C)C(=O)N[C@H]2CCC(=O)NC[C@H](NC(=O)[C@@H]3CCCN3C2=O)C(=O)N[C@@H](CC(C)C)C(=O)N2CCC[C@H]2C(=O)N[C@@H](Cc2c[nH]c3ccccc23)C(=O)N[C@@H](CO)C(=O)N[C@@H](Cc2c[nH]c3ccccc23)C(=O)N1C` [Example 10500] yielded an IC50 (range classes) of 100 to 1000 nM. Regarding `CCCC[C@H]1C(=O)N(C)[C@@H](CCCC)C(=O)N[C@@H](CC(C)C)C(=O)N[C@H](C(=O)NCC(N)=O)CSCC(=O)N[C@@H](Cc2ccc(O)cc2)C(=O)N(C)[C@@H](C)C(=O)N[C@H]2CCC(=O)NCCCC[C@H](NC(=O)[C@@H]3CCCN3C2=O)C(=O)N[C@@H](CC(C)C)C(=O)N2CCC[C@H]2C(=O)N[C@@H](Cc2c[nH]c3ccccc23)C(=O)N[C@@H](CO)C(=O)N[C@@H](Cc2c[nH]c3ccccc23)C(=O)N1C` [Example 10501], the IC50 (range classes) lay within 100 to 1000 nM. Same read-out and setting: the same measure for `CCCC[C@H]1C(=O)N(C)[C@@H](CCCC)C(=O)N[C@@H](CC(C)C)C(=O)N[C@H](C(=O)NCC(N)=O)CSCC(=O)N[C@@H](Cc2ccc(O)cc2)C(=O)N(C)[C@@H](C)C(=O)N[C@H]2CCC(=O)NCC[C@H](NC(=O)[C@@H]3CCCN3C2=O)C(=O)N[C@@H](CC(C)C)C(=O)N2CCC[C@H]2C(=O)N[C@@H](Cc2c[nH]c3ccccc23)C(=O)N[C@@H](CO)C(=O)N[C@@H](Cc2c[nH]c3ccccc23)C(=O)N1C` [Example 10503]: 100 to 1000 nM.

For the origin of these results see patent publication US10143746B2, “Immunomodulators” (BRISTOL-MYERS SQUIBB COMPANY, priority 2016, dated 2018).
